Measured values published in article PMC10454409, “Hybrids of Sterically Hindered Phenols and Diaryl Ureas: Synthesis, Switch from Antioxidant Activity to ROS Generation and Induction of Apoptosis” (International Journal of Molecular Sciences, 2023).
Read-outs that look alike come from different tables or passages of the source.

Legend:
Format in all cases: cell-based
[1] = system: MCF-7 cells (human breast adenocarcinoma); experiment: MTT cytotoxicity test, MCF-7; conditions: Homo sapiens, MCF7, MTT test; 24 h incubation per text, 48 h per method
Procedure: (§1) The cytotoxic effect on cells was determined using the colorimetric method of cell proliferation—the MTT test. NADP-H-dependent cellular oxidoreductase enzymes can, under certain conditions, reflect the number of viable cells. These enzymes are able to reduce the tetrazolium dye (MTT)-3-(4,5-dimethylthiazol-2-yl)-2,5-diphenyl-tetrazolium bromide to insoluble blue-violet formazan, which crystallizes inside the cell. The amount of formazan formed is proportional to the number of cells with active metabolism.
Formazan crystals were added to 100 µL of DMSO in each well. Optical density was recorded at 540 nm on an in vitro logic microplate reader (Russia). The experiments for all compounds were repeated in triplicate.

[2] = system: HuTu 80 cells (human duodenal adenocarcinoma); experiment: MTT cytotoxicity test, HuTu 80; conditions: Homo sapiens
From the text: (§2) For the experiments, we used tumor cell cultures M-HeLa clone 11 (epithelioid carcinoma of the cervix, subline HeLa., clone M-HeLa), HuTu 80 (human duodenal adenocarcinoma) and MCF7 (human breast adenocarcinoma (pleural fluid)) from the collection of the Institute of Cytology, Russian Academy of Sciences (St. Petersburg); human liver cells (Chang liver) from the collection of the Research Institute of Virology at the Russian Academy of Medical Sciences (Moscow); and SH-SY5Y (neuroblastoma)from the Laboratory of Tumor Cell Genetics at the Scientific Research Institute of Carcinogenesis N.N. Blokhin National Medical Research Center of Oncology.
as §1
(§3) Cells were seeded on a 96-well Nunc plate at a concentration of 5 × 10^3 cells per well in a volume of 100 μL of medium and cultured in a CO2 incubator at 37 °C until a monolayer was formed. […] After 48 h, the nutrient medium was removed from the plates and 100 µL of the nutrient medium without serum with MTT at a concentration of 0.5 mg/mL was added and incubated for 4 h at 37 °C. Formazan crystals were […] 100 µL of DMSO in each well. Optical density was recorded at 540 nm on an in vitro logic microplate reader (Russia). The experiments for all compounds were repeated in triplicate.
(§4) IC50 values were estimated using the Quest Graph IC50 Calculator (AAT Bioquest, Inc., Sunnyvale, CA, USA) (Version 2022) (accessed on 25 June 2022).

[3] = system: SH-SY5Y cells (neuroblastoma); experiment: MTT cytotoxicity test, SH-SY5Y; conditions: Homo sapiens, SH-SY5Y; MTT test; 24 h incubation per text, 48 h per method
From the text: as §2, §1, §3, §4

[4] = system: M-HeLa cells (human cervix epithelioid carcinoma); experiment: MTT cytotoxicity test, M-HeLa; conditions: Homo sapiens, M-HeLa; MTT test; 24 h incubation per text, 48 h per method
From the text: as §2, §1, §3, §4

[5] = HuTu80, read-out: IC50, HuTu 80
[6] = HuTu80, MTT test, 24 h incubation per text, 48 h per method, read-out: IC50, HuTu 80

Measured: IC50

COP(=O)(OC)C(c1cc(C(C)(C)C)c(O)c(C(C)(C)C)c1)c1ccc(NC(=O)Nc2ccccc2)nc1NC(=O)Nc1ccccc1 (centres unmarked) [5a]
> 70 µM: [1] | [2]; [5] | [3] | [4]

CC(C)OP(=O)(OC(C)C)C(c1cc(C(C)(C)C)c(O)c(C(C)(C)C)c1)c1ccc(NC(=O)Nc2ccccc2)nc1NC(=O)Nc1ccccc1 (centres unmarked) [5c]
> 70 µM: [1] | [2]; [6] | [3] | [4]

CC(C)(C)c1cc(C(c2ccc(NC(=O)Nc3ccccc3)nc2NC(=O)Nc2ccccc2)P(=O)(Oc2ccccc2)Oc2ccccc2)cc(C(C)(C)C)c1O (centres unmarked) [5d]
> 70 µM: [1] | [2]; [5] | [3] | [4]

COP(=O)(OC)C(c1cc(C(C)(C)C)c(O)c(C(C)(C)C)c1)c1ccc(NC(=O)Nc2ccccc2)cc1NC(=O)Nc1ccccc1 (centres unmarked) [6a]
> 70 µM: [1] | [2]; [5] | [3] | [4]

CCOP(=O)(OCC)C(c1cc(C(C)(C)C)c(O)c(C(C)(C)C)c1)c1ccc(NC(=O)Nc2ccccc2)cc1NC(=O)Nc1ccccc1 (centres unmarked) [6b]
> 70 µM: [1] | [2]; [5] | [3] | [4]

CC(C)(C)c1cc(C(c2ccc(NC(=O)Nc3ccccc3)cc2NC(=O)Nc2ccccc2)P(=O)(Oc2ccccc2)Oc2ccccc2)cc(C(C)(C)C)c1O (centres unmarked) [6d]
> 70 µM: [1] | [2]; [5] | [3] | [4]

COP(=O)(OC)C(c1cc(C(C)(C)C)c(O)c(C(C)(C)C)c1)c1ccc(NC(=O)Nc2cccc(C)c2)nc1NC(=O)Nc1cccc(C)c1 (centres unmarked) [8a]
> 70 µM: [1] | [2]; [5] | [3] | [4]

Cc1cccc(NC(=O)Nc2ccc(C(c3cc(C(C)(C)C)c(O)c(C(C)(C)C)c3)P(=O)(OC(C)C)OC(C)C)c(NC(=O)Nc3cccc(C)c3)n2)c1 (centres unmarked) [8c]
> 70 µM: [1] | [2]; [6] | [3] | [4]

Cc1cccc(NC(=O)Nc2ccc(C(c3cc(C(C)(C)C)c(O)c(C(C)(C)C)c3)P(=O)(Oc3ccccc3)Oc3ccccc3)c(NC(=O)Nc3cccc(C)c3)n2)c1 (centres unmarked) [8d]
> 70 µM: [1] | [2]; [5] | [3] | [4]

COP(=O)(OC)C(c1cc(C(C)(C)C)c(O)c(C(C)(C)C)c1)c1ccc(NC(=O)Nc2ccc(C)cc2)nc1NC(=O)Nc1ccc(C)cc1 (centres unmarked) [9a]
> 70 µM: [1] | [2]; [5] | [3] | [4]

CCOP(=O)(OCC)C(c1cc(C(C)(C)C)c(O)c(C(C)(C)C)c1)c1ccc(NC(=O)Nc2ccc(C)cc2)nc1NC(=O)Nc1ccc(C)cc1 (centres unmarked) [9b]
> 70 µM: [1] | [2]; [5] | [3] | [4]

Cc1ccc(NC(=O)Nc2ccc(C(c3cc(C(C)(C)C)c(O)c(C(C)(C)C)c3)P(=O)(OC(C)C)OC(C)C)c(NC(=O)Nc3ccc(C)cc3)n2)cc1 (centres unmarked) [9c]
> 70 µM: [1] | [2]; [6] | [3] | [4]

COc1ccc(NC(=O)Nc2ccc(C(c3cc(C(C)(C)C)c(O)c(C(C)(C)C)c3)P(=O)(OC)OC)c(NC(=O)Nc3ccc(OC)cc3)n2)cc1 (centres unmarked) [10a]
> 70 µM: [1] | [2]; [5] | [3] | [4]

COc1ccc(NC(=O)Nc2ccc(C(c3cc(C(C)(C)C)c(O)c(C(C)(C)C)c3)P(=O)(OC(C)C)OC(C)C)c(NC(=O)Nc3ccc(OC)cc3)n2)cc1 (centres unmarked) [10c]
> 70 µM: [1] | [2]; [6] | [3] | [4]

COc1ccc(NC(=O)Nc2ccc(C(c3cc(C(C)(C)C)c(O)c(C(C)(C)C)c3)P(=O)(Oc3ccccc3)Oc3ccccc3)c(NC(=O)Nc3ccc(OC)cc3)n2)cc1 (centres unmarked) [10d]
> 70 µM: [1] | [2]; [5] | [3] | [4]

CC(C)OP(=O)(OC(C)C)C(c1cc(C(C)(C)C)c(O)c(C(C)(C)C)c1)c1ccc(NC(=O)Nc2ccc(Cl)cc2)nc1NC(=O)Nc1ccc(Cl)cc1 (centres unmarked) [11c]
> 70 µM: [1] | [2]; [6] | [3] | [4]

CC(C)(C)c1cc(C(c2ccc(NC(=O)Nc3ccc(Cl)cc3)nc2NC(=O)Nc2ccc(Cl)cc2)P(=O)(Oc2ccccc2)Oc2ccccc2)cc(C(C)(C)C)c1O (centres unmarked) [11d]
> 70 µM: [1] | [2]; [5] | [3] | [4]

CC(C)OP(=O)(OC(C)C)C(c1cc(C(C)(C)C)c(O)c(C(C)(C)C)c1)c1ccc(NC(=O)Nc2ccc([N+](=O)[O-])cc2)nc1NC(=O)Nc1ccc([N+](=O)[O-])cc1 (centres unmarked) [12c]
> 70 µM: [1] | [2]; [5] | [3] | [4]

CC(C)(C)c1cc(C(c2ccc(NC(=O)Nc3ccc([N+](=O)[O-])cc3)nc2NC(=O)Nc2ccc([N+](=O)[O-])cc2)P(=O)(Oc2ccccc2)Oc2ccccc2)cc(C(C)(C)C)c1O (centres unmarked) [12d]
> 70 µM: [1] | [2]; [5] | [3] | [4]

Cc1cccc(NC(=O)Nc2ccc(C(c3cc(C(C)(C)C)c(O)c(C(C)(C)C)c3)P(=O)(Oc3ccccc3)Oc3ccccc3)c(NC(=O)Nc3cccc(C)c3)c2)c1 (centres unmarked) [13d]
> 70 µM: [1] | [2]; [5] | [3] | [4]

COP(=O)(OC)C(c1cc(C(C)(C)C)c(O)c(C(C)(C)C)c1)c1ccc(NC(=O)Nc2ccc(C)cc2)cc1NC(=O)Nc1ccc(C)cc1 (centres unmarked) [14a]
> 70 µM: [1] | [2]; [5] | [3] | [4]

Cc1ccc(NC(=O)Nc2ccc(C(c3cc(C(C)(C)C)c(O)c(C(C)(C)C)c3)P(=O)(Oc3ccccc3)Oc3ccccc3)c(NC(=O)Nc3ccc(C)cc3)c2)cc1 (centres unmarked) [14d]
> 70 µM: [1] | [2]; [5] | [3] | [4]

COc1ccc(NC(=O)Nc2ccc(C(c3cc(C(C)(C)C)c(O)c(C(C)(C)C)c3)P(=O)(OC)OC)c(NC(=O)Nc3ccc(OC)cc3)c2)cc1 (centres unmarked) [15a]
> 70 µM: [1] | [2]; [5] | [3] | [4]

COc1ccc(NC(=O)Nc2ccc(C(c3cc(C(C)(C)C)c(O)c(C(C)(C)C)c3)P(=O)(Oc3ccccc3)Oc3ccccc3)c(NC(=O)Nc3ccc(OC)cc3)c2)cc1 (centres unmarked) [15d]
> 70 µM: [1] | [2]; [5] | [3] | [4]

COP(=O)(OC)C(c1cc(C(C)(C)C)c(O)c(C(C)(C)C)c1)c1ccc(NC(=O)Nc2ccc(Cl)cc2)cc1NC(=O)Nc1ccc(Cl)cc1 (centres unmarked) [16a]
> 70 µM: [1] | [2]; [5] | [3] | [4]

CC(C)(C)c1cc(C(c2ccc(NC(=O)Nc3ccc(Cl)cc3)cc2NC(=O)Nc2ccc(Cl)cc2)P(=O)(Oc2ccccc2)Oc2ccccc2)cc(C(C)(C)C)c1O (centres unmarked) [16d]
> 70 µM: [1] | [2]; [5] | [3] | [4]

CC(C)(C)c1cc(C(c2ccc(NC(=O)Nc3ccc([N+](=O)[O-])cc3)cc2NC(=O)Nc2ccc([N+](=O)[O-])cc2)P(=O)(Oc2ccccc2)Oc2ccccc2)cc(C(C)(C)C)c1O (centres unmarked) [17d]
> 70 µM: [1] | [2]; [5] | [3] | [4]

COP(=O)(OC)C(c1cc(C(C)(C)C)c(O)c(C(C)(C)C)c1)c1ccc(NC(=S)Nc2ccccc2)nc1N (centres unmarked) [18a]
> 70 µM: [1] | [2]; [5] | [3] | [4]

CCOP(=O)(OCC)C(c1cc(C(C)(C)C)c(O)c(C(C)(C)C)c1)c1ccc(NC(=S)Nc2ccccc2)nc1N (centres unmarked) [18b]
> 70 µM: [1] | [2]; [5] | [3] | [4]

CC(C)(C)c1cc(C(c2ccc(NC(=S)Nc3ccccc3)nc2N)P(=O)(Oc2ccccc2)Oc2ccccc2)cc(C(C)(C)C)c1O (centres unmarked) [18d]
> 70 µM: [1] | [2]; [5] | [3] | [4]

CCOP(=O)(OCC)C(c1cc(C(C)(C)C)c(O)c(C(C)(C)C)c1)c1ccc(NC(=S)Nc2ccccc2)cc1NC(=S)Nc1ccccc1 (centres unmarked) [19b]
> 70 µM: [1] | [2]; [5] | [3] | [4]

CC(C)(C)c1cc(C(c2ccc(NC(=S)Nc3ccccc3)cc2NC(=S)Nc2ccccc2)P(=O)(Oc2ccccc2)Oc2ccccc2)cc(C(C)(C)C)c1O (centres unmarked) [19d]
> 70 µM: [1] | [2]; [5] | [3] | [4]
